Measurements published in patent US7820196B2, “Physiologically active agents containing vicinal dithioglycols and use thereof in various branches of economy” (priority 1999, dated 2010).

Key:
broiler chickens = experiment: Example 6: effect of unithiol on productivity and meat quality of broiler chickens; type: in vivo; design: average daily gain: unit not given here
Protocol: An experiment was conducted, on the inventors' initiative, on the experimental base of the All-Russia research and technological institute for aviculture (VNITIP) during which a study was given to the following tasks: • determination of an effect produced by unithiol (DMPS) on the productivity and meat quality of broiler chickens; • effect produced by unithiol on the accumulation of heavy metal compounds (mercury, cadmium, lead) in various tissues of poultry.
The experiment was carried out in a vivarium on broiler chickens of one cross. Poultry was grown in cell batteries from one day to six-week age. The operating parameters and feeding level met the recommendation VNITIP 1999. The experiment was conducted according to the diagram on Table 1.
The poultry population: 1 and 2 groups, 35 heads each; 3,4,5 groups—6 heads each.
1. Chicks' individual live weight; weighing at the age of one day, 2-, 4-, 6 weeks.
2. Average daily live weight increase of the broilers over a 6-week period.
3. Safety of the poultry population, the daily record keeping of the broilers lost, with the causes of murrain established.
4. Feathering conditions, individual evaluation.
5. Feed consumption over a period of growing by way of the daily record keeping and weighing of specifies feed for each and every group, as calculated per head and per kg of live weight increase.
6. Dressed small carcass mass, individually weighing in slaughtering at the age of 6 weeks.
7. Dressed yield of meat as calculated.
8. Classification of small carcasses according to GOST 25391-82.
9. Meat qualities by way of anatomically dressing the small carcasses of broilers.
10. Chemical meat composition on terms of a dry substance.
12. Fatty acid meat composition.

broilers = experiment: Example 5: broilers fed basic ration plus Unithiol; type: in vivo
Protocol: A full-ration mixed-fodder was checked for the absence of pathogens and used for feeding broilers. Thirty 15 days broilers were divided into one control and 4 experimental groups having 6 chickens each (3 male and 3 female chickens). Poultry were kept in a four-deck pen. The conditions of feeding such as the basic ration (BR) and the addition of Unithiol according to the protocol were as follows:
Experimental group 1: BR+1.3 mg of “Unithiol” per 1 kg of the body weight;
Experimental group 2: BR+1.7 mg of “Unithiol” per 1 kg of the body weight;
Experimental group 3: BR+2.1 mg of “Unithiol” per 1 kg of the body weight;
Experimental group 4: BR+2.5 mg of “Unithiol” per 1 kg of the body weight.
Feeding was performed in accordance with experimental protocol; broilers received water ad libitum; the experiment was carried out for 42 days.

[1] = Group 2: BR + 17 mg unithiol/kg feed days 15-42
[2] = Group 4: BR + heavy metals + 17 mg unithiol/kg feed, both days 15-42
[3] = Group 5: BR + heavy metals days 15-35, 34 mg unithiol/kg feed days 36-42
[4] = age 4 weeks, Group 2: BR + 17 mg unithiol/kg feed days 15-42
[5] = age 4 weeks, Group 4: BR + heavy metals + 17 mg unithiol/kg feed, both days 15-42
[6] = age 6 weeks, Group 2: BR + 17 mg unithiol/kg feed days 15-42
[7] = age 6 weeks, Group 4: BR + heavy metals + 17 mg unithiol/kg feed, both days 15-42
[8] = age 6 weeks, Group 5: BR + heavy metals days 15-35, 34 mg unithiol/kg feed days 36-42
[9] = about 1.7 mg Unithiol per 1 kg of body weight in ration

O=S(=O)([O-])CC(S)CS.[Na+] (stereo not shown) [Unithiol, Sodium 2,3-Dimercaptopropane sulfonate]
feathering conditions (broiler chickens; 2nd group): best value of feathering conditions | feed remuneration with products (broiler chickens; 4th and 5th groups, unithiol as additive in feed): improved feed remuneration with products | organoleptic indices of meat (taste, organoleptic qualities of broths) (broiler chickens; 5nd group, unithiol additionally to feed): highest value as to organoleptic indices | rates of growth (broiler chickens; Group 2: 17 mg/kg of feed since 2-week age): higher rates of growth | Dressed carcasses, weight (broiler chickens; [1]): 1310 gr | Feed consumption per head (broiler chickens; [1]): 3670 gr | Feed consumption per kg of gain in live weight (broiler chickens; [1]): 1.98 kg | Inflamed sores (broiler chickens; [1]): 14.2% | Meat category 1 (broiler chickens; [1]): 88.6% | Meat category 2 (broiler chickens; [1]): 11.4% | Meat yield (broiler chickens; [1]): 69.3% | chemical meat composition: Ash (broiler chickens; [1]): 0.99% | chemical meat composition: Dry substance (broiler chickens; [1]): 28.46% | chemical meat composition: Fat (broiler chickens; [1]): 7.79% | chemical meat composition: Protein (broiler chickens; [1]): 19.68% | chemical meat composition: Water (broiler chickens; [1]): 70.4% | fatty acid meat composition: Fatty acids (total) (broiler chickens; [1]): 29.58 mg per 100 gr of product | fatty acid meat composition: Heptadecanoic (broiler chickens; [1]): 0.24 mg per 100 gr of product | fatty acid meat composition: Heptadecynoic (broiler chickens; [1]): 0.14 mg per 100 gr of product | fatty acid meat composition: Isomyristic (broiler chickens; [1]): 0.16 mg per 100 gr of product | fatty acid meat composition: Isopentadecanoic (broiler chickens; [1]): 0.14 mg per 100 gr of product | fatty acid meat composition: Linoleic (broiler chickens; [1]): 6.41 mg per 100 gr of product | fatty acid meat composition: Linolenic (broiler chickens; [1]): 0.29 mg per 100 gr of product | fatty acid meat composition: Myristic (broiler chickens; [1]): 0.22 mg per 100 gr of product | fatty acid meat composition: Oleic (broiler chickens; [1]): 0.13 mg per 100 gr of product | fatty acid meat composition: Palmitic (broiler chickens; [1]): 7.05 mg per 100 gr of product | fatty acid meat composition: Palmitoleic (broiler chickens; [1]): 2.25 mg per 100 gr of product | fatty acid meat composition: Pentadecanoic (broiler chickens; [1]): 0.12 mg per 100 gr of product | fatty acid meat composition: Polyunsaturated (broiler chickens; [1]): 6.70 mg per 100 gr of product | fatty acid meat composition: Saturated and monounsaturated (broiler chickens; [1]): 22.88 mg per 100 gr of product | fatty acid meat composition: Stearic (broiler chickens; [1]): 2.44 mg per 100 gr of product | Dressed carcasses, weight (broiler chickens; [2]): 1217 gr | Feed consumption per head (broiler chickens; [2]): 3750 gr | Feed consumption per kg of gain in live weight (broiler chickens; [2]): 2.13 kg | Meat category 1 (broiler chickens; [2]): 66.7% | Meat category 2 (broiler chickens; [2]): 33.3% | Meat yield (broiler chickens; [2]): 67.6% | chemical meat composition: Ash (broiler chickens; [2]): 1.07% | chemical meat composition: Dry substance (broiler chickens; [2]): 25.71% | chemical meat composition: Fat (broiler chickens; [2]): 2.72% | chemical meat composition: Protein (broiler chickens; [2]): 21.92% | chemical meat composition: Water (broiler chickens; [2]): 73.0% | fatty acid meat composition: Fatty acids (total) (broiler chickens; [2]): 26.96 mg per 100 gr of product | fatty acid meat composition: Heptadecanoic (broiler chickens; [2]): 0.41 mg per 100 gr of product | fatty acid meat composition: Heptadecynoic (broiler chickens; [2]): 0.11 mg per 100 gr of product | fatty acid meat composition: Isomyristic (broiler chickens; [2]): 0.06 mg per 100 gr of product | fatty acid meat composition: Isopentadecanoic (broiler chickens; [2]): 0.03 mg per 100 gr of product | fatty acid meat composition: Linoleic (broiler chickens; [2]): 6.30 mg per 100 gr of product | fatty acid meat composition: Linolenic (broiler chickens; [2]): 0.25 mg per 100 gr of product | fatty acid meat composition: Myristic (broiler chickens; [2]): 0.15 mg per 100 gr of product | fatty acid meat composition: Oleic (broiler chickens; [2]): 8.39 mg per 100 gr of product | fatty acid meat composition: Palmitic (broiler chickens; [2]): 6.13 mg per 100 gr of product | fatty acid meat composition: Palmitoleic (broiler chickens; [2]): 1.71 mg per 100 gr of product | fatty acid meat composition: Pentadecanoic (broiler chickens; [2]): 0.05 mg per 100 gr of product | fatty acid meat composition: Polyunsaturated (broiler chickens; [2]): 6.55 mg per 100 gr of product | fatty acid meat composition: Saturated and monounsaturated (broiler chickens; [2]): 20.41 mg per 100 gr of product | fatty acid meat composition: Stearic (broiler chickens; [2]): 3.37 mg per 100 gr of product | Dressed carcasses, weight (broiler chickens; [3]): 1215 gr | Feed consumption per head (broiler chickens; [3]): 3780 gr | Feed consumption per kg of gain in live weight (broiler chickens; [3]): 2.17 kg | Meat category 1 (broiler chickens; [3]): 60.0% | Meat category 2 (broiler chickens; [3]): 40.0% | Meat yield (broiler chickens; [3]): 68.3% | chemical meat composition: Ash (broiler chickens; [3]): 1.14% | chemical meat composition: Dry substance (broiler chickens; [3]): 25.18% | chemical meat composition: Fat (broiler chickens; [3]): 2.52% | chemical meat composition: Protein (broiler chickens; [3]): 21.52% | chemical meat composition: Water (broiler chickens; [3]): 73.28% | fatty acid meat composition: Fatty acids (total) (broiler chickens; [3]): 26.71 mg per 100 gr of product | fatty acid meat composition: Heptadecanoic (broiler chickens; [3]): 0.14 mg per 100 gr of product | fatty acid meat composition: Heptadecynoic (broiler chickens; [3]): 0.08 mg per 100 gr of product | fatty acid meat composition: Isomyristic (broiler chickens; [3]): 0.06 mg per 100 gr of product | fatty acid meat composition: Isopentadecanoic (broiler chickens; [3]): 0.06 mg per 100 gr of product | fatty acid meat composition: Linoleic (broiler chickens; [3]): 6.54 mg per 100 gr of product | fatty acid meat composition: Linolenic (broiler chickens; [3]): 0.18 mg per 100 gr of product | fatty acid meat composition: Myristic (broiler chickens; [3]): 1.29 mg per 100 gr of product | fatty acid meat composition: Oleic (broiler chickens; [3]): 7.40 mg per 100 gr of product | fatty acid meat composition: Palmitic (broiler chickens; [3]): 5.73 mg per 100 gr of product | fatty acid meat composition: Palmitoleic (broiler chickens; [3]): 1.59 mg per 100 gr of product | fatty acid meat composition: Pentadecanoic (broiler chickens; [3]): 0.07 mg per 100 gr of product | fatty acid meat composition: Polyunsaturated (broiler chickens; [3]): 6.72 mg per 100 gr of product | fatty acid meat composition: Saturated and monounsaturated (broiler chickens; [3]): 19.99 mg per 100 gr of product | fatty acid meat composition: Stearic (broiler chickens; [3]): 3.57 mg per 100 gr of product | average daily gain (broiler chickens; age 1-6 weeks, Group 2: BR + 17 mg unithiol/kg feed days 15-42): 44.0 | average daily gain (broiler chickens; age 1-6 weeks, Group 4: BR + heavy metals + 17 mg unithiol/kg feed, both days 15-42): 41.8 | average daily gain (broiler chickens; age 1-6 weeks, Group 5: BR + heavy metals days 15-35, 34 mg unithiol/kg feed days 36-42): 41.4 | average daily gain (broiler chickens; age 2-4 weeks, Group 2: BR + 17 mg unithiol/kg feed days 15-42): 47.1 | average daily gain (broiler chickens; age 2-4 weeks, Group 4: BR + heavy metals + 17 mg unithiol/kg feed, both days 15-42): 42.7 | average daily gain (broiler chickens; age 4-6 weeks, Group 2: BR + 17 mg unithiol/kg feed days 15-42): 64.1 | average daily gain (broiler chickens; age 4-6 weeks, Group 4: BR + heavy metals + 17 mg unithiol/kg feed, both days 15-42): 62.1 | average daily gain (broiler chickens; age 4-6 weeks, Group 5: BR + heavy metals days 15-35, 34 mg unithiol/kg feed days 36-42): 64.2 | live weight (broiler chickens; [4]): 993.4 grams | safety of the poultry population (broiler chickens; [4]): 100% | live weight (broiler chickens; [5]): 930.0 grams | safety of the poultry population (broiler chickens; [5]): 100% | live weight (broiler chickens; [6]): 1890.5 grams | safety of the poultry population (broiler chickens; [6]): 100% | live weight (broiler chickens; [7]): 1880.0 grams | safety of the poultry population (broiler chickens; [7]): 100% | live weight (broiler chickens; [8]): 1780.0 grams | safety of the poultry population (broiler chickens; [8]): 83.3% | dressed yield of meat and fatness (broiler chickens; application of unithiol): highest level of the dressed yield of meat and also good fatness | chemical and fatty acid meat composition (broiler chickens; unithiol in the composition of feed): increased polyunsaturated fatty acid content in chicken meat | feathering condition (broilers; Unithiol in ration): Feathering condition improvement | fodder consumption (broilers; Unithiol in ration): increased fodder consumption | average weight gain (broilers; [9]): up to 35.8 g per day | gain rate, % from that in the control group (broilers; [9]): 145.9% | growth stimulating effect (broilers; about 1.7 mg per 1 kg of body weight in ration, beginning from the 15th day): growth stimulating effect | level of cadmium, zinc, lead and copper in meat and liver, lower than control group (broilers; experimental groups, 1.3-2.5 mg Unithiol per kg body weight): about 1.5 times
